Laboratory results from ChEMBL document CHEMBL1136636, “Carbonic anhydrase inhibitors: inhibition of the tumor-associated isozyme IX with aromatic and heterocyclic sulfonamides” (Bioorg Med Chem Lett, 2003).

What was measured:
Carbonic anhydrase 9 = Carbonic anhydrase 9 (Homo sapiens, UniProt Q16790)
Carbonic anhydrase 4 = molecular target: T1, Carbonic anhydrase 4 (Bos taurus, UniProt Q95323)
T1 sequence (Q95323 whole entry): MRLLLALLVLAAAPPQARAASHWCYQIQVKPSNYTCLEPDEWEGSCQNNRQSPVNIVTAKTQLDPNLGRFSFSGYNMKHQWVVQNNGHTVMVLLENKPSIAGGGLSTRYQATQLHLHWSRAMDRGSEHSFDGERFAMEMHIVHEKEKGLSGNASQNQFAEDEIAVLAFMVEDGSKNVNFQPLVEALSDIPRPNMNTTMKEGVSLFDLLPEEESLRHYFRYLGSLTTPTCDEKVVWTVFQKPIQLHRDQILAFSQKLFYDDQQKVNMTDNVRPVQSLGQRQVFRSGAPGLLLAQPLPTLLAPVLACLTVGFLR

Carbonic anhydrase 1 = Carbonic anhydrase 1 (Homo sapiens, UniProt P00915)
Carbonic anhydrase 1, sequence (P00915 whole entry): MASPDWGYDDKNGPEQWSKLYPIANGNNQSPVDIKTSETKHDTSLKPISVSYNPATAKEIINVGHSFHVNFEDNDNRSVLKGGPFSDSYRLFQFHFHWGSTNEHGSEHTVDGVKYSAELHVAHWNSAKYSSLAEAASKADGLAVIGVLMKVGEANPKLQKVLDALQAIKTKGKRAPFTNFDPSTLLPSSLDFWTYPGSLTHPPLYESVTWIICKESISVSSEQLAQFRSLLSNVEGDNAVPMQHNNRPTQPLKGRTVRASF

| Ki (Carbonic anhydrase 9) | Ki (Carbonic anhydrase 4) | Ki (Carbonic anhydrase 1) | SMILES |
| --- | --- | --- | --- |
| 21 nM |  |  | NS(=O)(=O)c1ccc(CO)cc1 |
| 24 nM | 72 nM |  | Nc1ccc(S(=O)(=O)NCCc2ccc(S(N)(=O)=O)cc2)cc1 |
| 34 nM | 129 nM |  | Nc1ccc(S(=O)(=O)Nc2ccc(S(N)(=O)=O)cc2)cc1 |
| 26 nM | 86 nM |  | NS(=O)(=O)c1ccc(C(=O)O)cc1 [CARZENIDE] |
| 22 nM |  |  | NS(=O)(=O)c1ccc(CCO)cc1 |
|  | 72 nM |  | Nc1ccc(S(=O)(=O)NCc2ccc(S(N)(=O)=O)cc2)cc1 |
|  | 144 nM | 185 nM | Nc1ccc(S(=O)(=O)Nc2ccccc2S(N)(=O)=O)cc1 |
| 16 nM |  |  | Nc1nccc(Nc2ccc(S(N)(=O)=O)cc2)n1 |

Second part, the compound before the results:

| SMILES | Ki (Carbonic anhydrase 9) | Ki (Carbonic anhydrase 4) | Ki (Carbonic anhydrase 1) |
| --- | --- | --- | --- |
| Nc1ccc(S(N)(=O)=O)cc1F | 245 nM |  |  |
| Nc1ccc(S(N)(=O)=O)cc1I | 285 nM |  |  |
| Nc1ccc(S(N)(=O)=O)cc1Cl | 264 nM |  |  |
| Cn1nc(S(N)(=O)=O)sc1=N | 30 nM |  |  |
| Nc1cc(C(F)(F)F)c(S(N)(=O)=O)cc1S(N)(=O)=O [2,4-DISULFAMYLTRIFLUOROMETHYLANILINE] |  | 154 nM |  |
| NS(=O)(=O)c1cccc2cccnc12 | 32 nM | 415 nM |  |
| NS(=O)(=O)c1cccc2ccccc12 | 30 nM | 438 nM | 23000 nM |
| Nc1ccccc1S(N)(=O)=O | 33 nM |  |  |
